pIC50: −log10 of the molar value. Where a SMILES comes first, the peptide text is derived from it. Bridges are numbered along the chain shown (N, C = ends).

For this test, the target named is T1, recombinant human VEGF165 (Homo sapiens, UniProt P15692).
T1 sequence (P15692 27-191 isoform P15692-4): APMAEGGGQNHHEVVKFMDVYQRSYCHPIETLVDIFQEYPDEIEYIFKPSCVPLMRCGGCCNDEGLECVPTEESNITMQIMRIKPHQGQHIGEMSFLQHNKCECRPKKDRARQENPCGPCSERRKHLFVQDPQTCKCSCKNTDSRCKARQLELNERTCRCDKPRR
Briefly: VEGF peptide binding assay (competition ELISA, VEGF165 binding to coated VEGFR2/Fc). The method, boiled down:
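VEGFR2/Fc was coated, and peptides (0.128–10,000 nM, N-acetyl, C-amide) were preincubated with 25 ng/ml human VEGF165 and added for 1 h at RT. Bound VEGF was detected with biotinylated anti-VEGF, streptavidin-HRP and TMB at OD450. IC50 came from sigmoid dose-response fits of OD450 versus concentration.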
On the technique in general: In an ELISA, binding on a coated surface is turned into a signal by an enzyme label.
In general, pIC50 refers to −log10 of the IC50, conventionally taken in molar units. As for `CC[C@H](C)[C@@H]1NC(=O)[C@H](CC(=O)O)NC(=O)[C@@H](NC(=O)[C@H](CC(N)=O)NC(=O)[C@@H]2CCCN2C(=O)[C@H](CCC(=O)O)NC(=O)[C@@H](NC(C)=O)C(C)C)CSSC[C@@H](C(=O)N[C@@H](Cc2ccccc2)C(=O)N[C@@H](CCC(=O)O)C(=O)N[C@@H](CCCNC(=N)N)C(=O)N[C@@H](CC(C)C)C(=O)N[C@@H](Cc2ccc(O)cc2)C(=O)NCC(=O)NCC(=O)NCC(N)=O)NC(=O)[C@H](CCC(=O)O)NC(=O)[C@H](Cc2c[nH]c3ccccc23)NC(=O)[C@H](C(C)C)NC(=O)[C@H](Cc2c[nH]c3ccccc23)NC(=O)[C@H](CCSC)NC(=O)[C@H](C(C)C)NC(=O)[C@H](Cc2c[nH]cn2)NC1=O` [Compound 61, VEPNCDIHVMWVWECFERLYGGG] (Ac-VEPNCDIHVMWVWECFERLYGGG-NH2; disulfide 5-15 (inferred)), the pIC50 is 7.63.

For `CC[C@H](C)[C@@H]1NC(=O)[C@H](CC(=O)O)NC(=O)[C@@H](NC(=O)[C@H](CC(N)=O)NC(=O)[C@@H]2CCCN2C(=O)[C@H](CCC(=O)O)NC(=O)[C@@H](NC(C)=O)C(C)C)CSSC[C@@H](C(=O)N[C@@H](Cc2ccccc2)C(=O)N[C@@H](CCC(=O)O)C(=O)N[C@@H](CCCNC(=N)N)C(=O)N[C@@H](CC(C)C)C(=O)N[C@@H](CCSC)C(=O)N[C@@H](CCCCN)C(N)=O)NC(=O)[C@H](CCC(=O)O)NC(=O)[C@H](Cc2c[nH]c3ccccc23)NC(=O)[C@H](C(C)C)NC(=O)[C@H](Cc2c[nH]c3ccccc23)NC(=O)[C@H](CCSC)NC(=O)[C@H](C(C)C)NC(=O)[C@H](Cc2c[nH]cn2)NC1=O` [Compound 62, VEPNCDIHVMWVWECFERLMK] (Ac-VEPNCDIHVMWVWECFERLMK-NH2; disulfide 5-15 (inferred)), the pIC50 is 7.60.

For `CC[C@H](C)[C@@H]1NC(=O)[C@H](CC(=O)O)NC(=O)[C@@H](NC(=O)[C@H](CC(N)=O)NC(=O)[C@@H]2CCCN2C(=O)[C@H](CCC(=O)O)NC(=O)[C@@H](NC(C)=O)C(C)C)CSSC[C@@H](C(=O)N[C@@H](Cc2ccccc2)C(=O)N[C@@H](CCC(=O)O)C(=O)N[C@@H](CCCNC(=N)N)C(=O)N[C@@H](CC(C)C)C(=O)N[C@@H](CCSC)C(=O)N[C@@H](CCCNC(=N)N)C(=O)N[C@@H](CCC(=O)O)C(=O)N[C@@H](CC(C)C)C(N)=O)NC(=O)[C@H](CCC(=O)O)NC(=O)[C@H](Cc2c[nH]c3ccccc23)NC(=O)[C@H](C(C)C)NC(=O)[C@H](Cc2c[nH]c3ccccc23)NC(=O)[C@H](CCSC)NC(=O)[C@H](C(C)C)NC(=O)[C@H](Cc2c[nH]cn2)NC1=O` [Compound 63, VEPNCDIHVMWVWECFERLMREL] (Ac-VEPNCDIHVMWVWECFERLMREL-NH2; disulfide 5-15 (inferred)), the pIC50 is 7.62.

Turning to `CC[C@H](C)[C@@H]1NC(=O)[C@H](CC(=O)O)NC(=O)[C@@H](NC(=O)[C@H](CC(N)=O)NC(=O)[C@@H]2CCCN2C(=O)[C@H](CCC(=O)O)NC(=O)[C@@H](NC(C)=O)C(C)C)CSSC[C@@H](C(=O)N[C@@H](Cc2ccccc2)C(=O)N[C@@H](CCC(=O)O)C(=O)N[C@@H](CCCNC(=N)N)C(=O)N[C@@H](CC(C)C)C(N)=O)NC(=O)[C@H](CCC(=O)O)NC(=O)[C@H](Cc2c[nH]c3ccccc23)NC(=O)[C@H](C(C)C)NC(=O)[C@H](Cc2c[nH]c3ccccc23)NC(=O)[C@H](CCSC)NC(=O)[C@H](C(C)C)NC(=O)[C@H](Cc2c[nH]cn2)NC1=O` [Compound 64, V-E-P-N-C-D-I-H-V-M-W-V-W-E-C-F-E-R-L-] (Ac-VEPNCDIHVMWVWECFERL-NH2; disulfide 5-15 (inferred)), the pIC50 was 7.62.

For `CC[C@H](C)[C@@H]1NC(=O)[C@H](CC(=O)O)NC(=O)[C@@H](NC(=O)[C@H](CC(N)=O)NC(=O)[C@@H]2CCCN2C(=O)[C@H](CCC(=O)O)NC(=O)[C@@H](NC(C)=O)C(C)C)CSSC[C@@H](C(=O)N[C@@H](Cc2ccccc2)C(=O)N[C@@H](CCC(=O)O)C(=O)N[C@@H](CCCNC(=N)N)C(=O)N[C@@H](CC(C)C)C(=O)N[C@@H](CCSC)C(=O)N[C@@H](CCCCN)C(=O)N[C@@H](CCC(=O)O)C(=O)N[C@@H](CC(C)C)C(N)=O)NC(=O)[C@H](CCC(=O)O)NC(=O)[C@H](Cc2c[nH]c3ccccc23)NC(=O)[C@H](C(C)C)NC(=O)[C@H](Cc2c[nH]c3ccccc23)NC(=O)[C@H](CCSC)NC(=O)[C@H](C(C)C)NC(=O)[C@H](Cc2c[nH]cn2)NC1=O` [Compound 65, VEPNCDIHVMWVWECFERLMKEL] (Ac-VEPNCDIHVMWVWECFERLMKEL-NH2; disulfide 5-15 (inferred)), the pIC50 was 7.74.

With `CC[C@H](C)[C@@H]1NC(=O)[C@H](CC(=O)O)NC(=O)[C@@H](NC(=O)[C@H](CC(N)=O)NC(=O)[C@@H]2CCCN2C(=O)[C@H](CCC(=O)O)NC(=O)[C@@H](NC(C)=O)C(C)C)CSSC[C@@H](C(=O)N[C@@H](Cc2ccccc2)C(=O)N[C@@H](CCC(=O)O)C(=O)N[C@@H](CCCNC(=N)N)C(=O)N[C@@H](CC(C)C)C(=O)N[C@@H](Cc2ccc(O)cc2)C(=O)NCC(=O)N2CCC[C@H]2C(=O)N[C@@H](Cc2c[nH]c3ccccc23)C(N)=O)NC(=O)[C@H](CCC(=O)O)NC(=O)[C@H](Cc2c[nH]c3ccccc23)NC(=O)[C@H](C(C)C)NC(=O)[C@H](Cc2c[nH]c3ccccc23)NC(=O)[C@H](CCSC)NC(=O)[C@H](C(C)C)NC(=O)[C@H](Cc2c[nH]cn2)NC1=O` [Compound 66, VEPNCDIHVMWVWECFERLYGPW] (Ac-VEPNCDIHVMWVWECFERLYGPW-NH2; disulfide 5-15 (inferred)), the pIC50 is 7.73.

As to `CC[C@H](C)[C@@H]1NC(=O)[C@H](CC(=O)O)NC(=O)[C@@H](NC(=O)[C@H](CC(N)=O)NC(=O)[C@@H]2CCCN2C(=O)[C@H](CCC(=O)O)NC(=O)[C@@H](NC(C)=O)C(C)C)CSSC[C@@H](C(=O)N[C@@H](Cc2ccccc2)C(=O)N[C@@H](CCC(=O)O)C(=O)N[C@@H](CCCNC(=N)N)C(=O)N[C@@H](CC(C)C)C(=O)N[C@@H](CC(C)C)C(=O)N[C@@H](CCCCN)C(N)=O)NC(=O)[C@H](CCC(=O)O)NC(=O)[C@H](Cc2c[nH]c3ccccc23)NC(=O)[C@H](C(C)C)NC(=O)[C@H](Cc2c[nH]c3ccccc23)NC(=O)[C@H](CCSC)NC(=O)[C@H](C(C)C)NC(=O)[C@H](Cc2c[nH]cn2)NC1=O` [Compound 67, VEPNCDIHVMWVWECFERLLK] (Ac-VEPNCDIHVMWVWECFERLLK-NH2; disulfide 5-15 (inferred)), the pIC50 is 8.00.

Regarding `CC[C@H](C)[C@@H]1NC(=O)[C@H](CC(=O)O)NC(=O)[C@@H](NC(=O)[C@H](CC(N)=O)NC(=O)[C@@H]2CCCN2C(=O)[C@H](CCC(=O)O)NC(=O)[C@@H](NC(C)=O)C(C)C)CSSC[C@@H](C(=O)N[C@@H](Cc2ccccc2)C(=O)N[C@@H](CCC(=O)O)C(=O)N[C@@H](CCCNC(=N)N)C(=O)N[C@@H](CC(C)C)C(=O)N[C@@H](CC(C)C)C(=O)N[C@@H](CCCCNC(C)=O)C(N)=O)NC(=O)[C@H](CCC(=O)O)NC(=O)[C@H](Cc2c[nH]c3ccccc23)NC(=O)[C@H](C(C)C)NC(=O)[C@H](Cc2c[nH]c3ccccc23)NC(=O)[C@H](CCSC)NC(=O)[C@H](C(C)C)NC(=O)[C@H](Cc2c[nH]cn2)NC1=O` [Compound 68, VEPNCDIHVMWVWECFERLL-(Kac)] (Ac-VEPNCDIHVMWVWECFERLLK(Ac)-NH2; disulfide 5-15 (inferred)), the pIC50 was 8.00.

As to `CC[C@H](C)[C@@H]1NC(=O)[C@H](CC(=O)O)NC(=O)[C@@H](NC(=O)[C@H](CC(N)=O)NC(=O)[C@@H]2CCCN2C(=O)[C@H](CCC(=O)O)NC(=O)[C@@H](NC(C)=O)C(C)C)CSSC[C@@H](C(=O)N[C@@H](Cc2ccccc2)C(=O)N[C@@H](CCC(=O)O)C(=O)N[C@@H](CCCNC(=N)N)C(=O)N[C@@H](CC(C)C)C(=O)N[C@@H](Cc2ccc(O)cc2)C(=O)NCC(=O)N[C@@H](CCC(=O)O)C(=O)N[C@@H](Cc2ccccc2)C(N)=O)NC(=O)[C@H](CCC(=O)O)NC(=O)[C@H](Cc2c[nH]c3ccccc23)NC(=O)[C@H](C(C)C)NC(=O)[C@H](Cc2c[nH]c3ccccc23)NC(=O)[C@H](CCSC)NC(=O)[C@H](C(C)C)NC(=O)[C@H](Cc2c[nH]cn2)NC1=O` [Compound 70, VEPNCDIHVMWVWECFERLYGEF] (Ac-VEPNCDIHVMWVWECFERLYGEF-NH2; disulfide 5-15 (inferred)), the pIC50 is 8.03.

Turning to `CC[C@H](C)[C@@H]1NC(=O)[C@H](CC(=O)O)NC(=O)[C@@H](NC(=O)[C@H](CC(N)=O)NC(=O)[C@@H]2CCCN2C(=O)[C@H](CCC(=O)O)NC(=O)[C@@H](NC(C)=O)C(C)C)CSSC[C@@H](C(=O)N[C@@H](Cc2ccccc2)C(=O)N[C@@H](CCC(=O)O)C(=O)N[C@@H](CCCNC(=N)N)C(=O)N[C@@H](CC(C)C)C(=O)N[C@@H](Cc2ccc(O)cc2)C(=O)NCC(=O)N[C@@H](CC(C)C)C(=O)N[C@@H](CO)C(N)=O)NC(=O)[C@H](CCC(=O)O)NC(=O)[C@H](Cc2c[nH]c3ccccc23)NC(=O)[C@H](C(C)C)NC(=O)[C@H](Cc2c[nH]c3ccccc23)NC(=O)[C@H](CCSC)NC(=O)[C@H](C(C)C)NC(=O)[C@H](Cc2c[nH]cn2)NC1=O` [Compound 71, VEPNCDIHVMWVWECFERLYGLS] (Ac-VEPNCDIHVMWVWECFERLYGLS-NH2; disulfide 5-15 (inferred)), the pIC50 was 8.27.

The record behind these values is patent publication US8937048B2, “Anti-angiogenic compounds” (Covx Technologies Ireland, Limited, priority 2008, dated 2015).
